From patent publication US10781203B2, “Nontoxic compounds for the treatment and prevention of herpesvirus infections” (The Penn State Research Foundation, priority 2016, dated 2020)

What was measured:
HCMV-infected cells = assay: Western blot analysis of HCMV-infected cell lysates; format: cell-based, human; conditions: MOI=3, 10 μM
Method: Total cell lysates were prepared from uninfected or HCMV-infected cells (MOI=3) at the indicated time points by harvesting lystates in radioimmunoprecipitation assay buffer (1% NP-40, 1% sodium deoxycholate, 0.1% sodium dodecyl sulfate [SDS], 0.15 M NaCl, 10 mM sodium phosphate [pH 7.2], 2 mM EDTA, 50 mM NaF, 1 mM phenylmethylsulfonyl fluoride, […], 0.2 mM Na3VO4, 1 μg/ml leupeptin). After centrifugation, the supernatant was collected and stored at −80° C. The protein was quantified by a Bradford assay (Bio-Rad) and samples were analyzed by SDS-PAGE gel electrophoresis and immunoblotting on nitrocellulose or PVDF membrane blocked with 5% milk or 5% BSA in tris-buffered saline (0.1% tween). Antibody dilutions were in accordance with manufacturer's instructions.

HSV-1 = assay: Virus titer analysis of HSV; format: cell-based; conditions: MOI=3; harvested at 24 hpi
Text: FIGS. 10A-10B show data to provide support for Retro94 and derivatives being effective against other herpesviruses. […] Samples were harvested at 24 hpi. Representative data shown are from independent replicates. FIG. 10B provides a table showing low nanomolar EC50 values of Retro94F against other herpesviruses.

STX5 = biological target: T1, STX5 (Homo sapiens, UniProt Q13190); assay: Immunofluorescence detection of STX5 localization; format: cell-based
T1 construct: immunofluorescence detection of STX5 in uninfected (Mock) and HCMV-infected cells (96 hpi) in the presence of DMSO control or Retro94; endogenous in cells; host or cells: uninfected (mock) or HCMV-infected cells
T1 sequence (Q13190 1-355): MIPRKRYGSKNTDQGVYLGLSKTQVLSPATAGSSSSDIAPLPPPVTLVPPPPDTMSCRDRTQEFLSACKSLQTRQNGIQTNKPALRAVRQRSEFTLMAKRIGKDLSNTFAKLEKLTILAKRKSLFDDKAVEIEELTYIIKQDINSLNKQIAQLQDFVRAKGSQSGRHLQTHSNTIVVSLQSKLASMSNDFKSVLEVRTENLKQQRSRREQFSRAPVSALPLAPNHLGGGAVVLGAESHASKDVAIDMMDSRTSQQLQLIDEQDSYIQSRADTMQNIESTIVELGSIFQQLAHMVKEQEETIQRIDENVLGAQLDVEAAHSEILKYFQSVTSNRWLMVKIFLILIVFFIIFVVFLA
Method: Coverslips or chamber slides containing either uninfected or HCMV-infected cells were washed in phosphate-buffered saline (PBS) and fixed in 2% paraformaldehyde for 15 min at room temperature. Cells were blocked in PBS containing 10% human serum, 0.5% Tween-20, and 5% glycine. 0.1% Triton-X 100 was added for permeabilization. Primary and secondary antibodies as specified in the antibody section were diluted in blocking buffer. Nuclei were stained with DAPI prior to mounting with ProLong Diamond Antifade Mountant (ThermoScientific). For live-cell experiments using the pp28-mCherry virus, cells were grown on glass bottom microwell dishes (MatTek Corporation) and nuclei were stained with NucBlue Live Cell Stain ReadyProbes reagent (ThermoScientific). All images were acquired using a C2+ Confocal Microscope System (Nikon). Images were processed using NIS elements software. Images shown are volume renderings of Z-stacks.

MCMV = assay: Viral titers of MCMV-infected fibroblasts; format: cell-based, mouse; conditions: treated at 2 hpi; 6 dpi (FIG. 7C)
Method: FIG. 7A is a graph showing viral titers at 15 dpi of fibroblasts infected with various strains of HCMV (MOI=0.05) and treated with DMSO or Retro94 at 2 hpi. Media was changed and fresh Retro94 was added at 6 dpi. Bright field images representing CPE of above infections shown at right. FIG. 7B show HCMV-infected ARPE-19 cells (TB40, MOI=3) at 21 dpi treated with DMSO or Retro94 ([…]). Infected cells detected by monitoring mCherry (red) expressed by TB40 virus. Scale bars: 1 mm. The table below images show number of foci detected, average area and standard error of the mean. P<0.00001. […]
For MCMV growth curve analysis, samples were titrated on NIH 3T3 cells and titers were calculated using the 50% tissue culture infective dose method. Both HCMV virus stocks and samples for growth curves were titrated by serial dilutions on MRC5 cells and quantified by the immunological detection of immediate-early proteins as previously described (Britt W J. Human cytomegalovirus: propagation, quantification, and storage. Curr Protoc Microbiol. 2010; Chapter 14: Unit 14E.3). The numbers of stained nuclei were acquired on a Nikon Eclipse Ti Inverted microscope and fluorescent nuclei were quantified using the NIS Elements Software. […] The number and size of foci were quantified using NIS Elements software.

HCMV = HCMV single-step growth curve / virus titer analysis (MOI=3); format: cell-based, Human cytomegalovirus (HCMV); conditions: for reduction in infectious virion production: MOI=3, titers at 96 hpi
Method: Infections were done at an MOI of 0.05 for multi-step growth curves and MOI 3 for single-step growth curves. Infections were done on NHDFs unless otherwise noted. Virus was incubated with cells for 2 hours before addition of fresh media. For growth curve analyses, virus was harvested at the indicated time-points for each experiment by scraping the cells into the medium, sonicating 10 times with 1 second pulses, vortexing for 15 seconds, and centrifuging at 13,000 rpm for 10 min. Supernatants were collected, aliquoted and flash-frozen in liquid nitrogen before storage at −80° C.
For MCMV growth curve analysis, samples were titrated on NIH 3T3 cells and titers were calculated using the 50% tissue culture infective dose method. Both HCMV virus stocks and samples for growth curves were titrated by serial dilutions on MRC5 cells and quantified by the immunological detection of immediate-early proteins as previously described (Britt W J. Human cytomegalovirus: propagation, quantification, and storage. Curr Protoc Microbiol. 2010; Chapter 14: Unit 14E.3). The numbers of stained nuclei were acquired on a Nikon Eclipse Ti Inverted microscope and fluorescent nuclei were quantified using the NIS Elements Software. Images of viral foci from infection of ARPE19 cells were also acquired on Eclipse Ti Inverted microscope. The number and size of foci were quantified using NIS Elements software.
^1H NMR spectra were recorded on a 500 MHz Bruker spectrometer (Billerica, Mass.) using tetramethylsilane (TMS) as the internal reference. The following abbreviations were used to designate chemical shift multiplicities: s=singlet, d=doublet, dd=double doublet, t=triplet, dt=doublet of triplet, m=multiplet. Mass Spec analysis was performed on 4000 Q trap hybrid triple quadrupole/linear ion trap instrument (Applied Biosystems/MDS Sciex) at the proteomic facility at Penn State Hershey Cancer Institute, Hershey, Pa. Thin-layer chromatography (TLC) was on aluminum-supported, precoated silica gel plates (EM Industries, Gibbstown, N.J.). 5-(2-methyl-3-thiazol-4-yl)-2-thiophencarboxaldehyde was purchased from MAYBRIDGE-Thermo Fisher (Cornwall, UK). All other starting materials were obtained from Aldrich Chemical Co. (Milwaukee, Wis.) and used without further purification. Retro94 was added to cells at 2 hpi at a concentration of 10 μM, unless otherwise indicated.

In the case of Cc1nc(-c2ccc(C3N(C)c4ccccc4C(=O)N3c3ccccc3)s2)cs1 (stereo not shown) [Retro94, 1-Methyl-2-(5-(2-methylthiazol-4-yl)thiophen-2-yl)-3phenyl-2,3-dihydroquinazolin-4(1H)-one], the “STX5 protein level during infection” value (HCMV-infected cells) is reported as “did not reach the same level as observed in control-treated samples”, the “steady state levels of immediate-early and late viral proteins” value (HCMV-infected cells; 24-96 hpi) is reported as “not affected” and the “decrease of levels of HSV-1” value (HSV-1) is reported as roughly 90%. The STX5 localization (STX5; HCMV-infected cells, 96 hpi) was “dispersed throughout the cell and was not located to the cVAC ring”, the STX5 localization (STX5; uninfected cells) was “lost its Golgi-localization” and the “decrease of MCMV titer” value (MCMV) was roughly 3 logs. The IC50 (HCMV; Human betaherpesvirus 5, added at 2 hpi, MOI 3, 96 hpi, read-out: IC50 (HCMV titers)) was roughly 0.13 µM, the “reduction of production of infectious virions” value (HCMV; MOI 3 pfu/cell, added two hours after infection, 10 μM) was “greater than two” and the “reduction in infectious virion production” value (HCMV; added at 2 hpi) was “two”. For the same compound, the “reduction in infectious virion production” value (HCMV; added at 24 hpi) was 20 fold, the “reduction in infectious virion production” value (HCMV; added at 48 hpi) was 5 fold and the “reduction in infectious virion production” value (HCMV; added at 72 hpi) was “two”. For the same compound, the “dilution at which a significant inhibition in viral titers was first present” value (HCMV; ten-fold dilutions added at 2 hpi, MOI 3, 96 hpi) was 1 µM.
